Assay results taken from patent EP4624470A1, “YOHIMBINE DERIVATIVE, AND PREPARATION METHOD THEREFOR AND PHARMACEUTICAL COMPOSITION AND USE THEREOF” (Shanghai Institute of Materia Medica, Chinese Academy of …, priority 2022, dated 2024).

Columns and labels:
α2A-AR = biological target: T1, α2A-AR (Homo sapiens, UniProt P08913); assay: α2A-AR antagonist assay (calcium flux, Fluo-4, FlexStation II); format: cell-based; details: antagonistic activity against agonist UK14304 in cells stably expressing α2A-AR/Ga16
T1 construct: expressed in transfected cells; stably expressing α2A-AR/Gα16
T1 sequence (P08913 1-465): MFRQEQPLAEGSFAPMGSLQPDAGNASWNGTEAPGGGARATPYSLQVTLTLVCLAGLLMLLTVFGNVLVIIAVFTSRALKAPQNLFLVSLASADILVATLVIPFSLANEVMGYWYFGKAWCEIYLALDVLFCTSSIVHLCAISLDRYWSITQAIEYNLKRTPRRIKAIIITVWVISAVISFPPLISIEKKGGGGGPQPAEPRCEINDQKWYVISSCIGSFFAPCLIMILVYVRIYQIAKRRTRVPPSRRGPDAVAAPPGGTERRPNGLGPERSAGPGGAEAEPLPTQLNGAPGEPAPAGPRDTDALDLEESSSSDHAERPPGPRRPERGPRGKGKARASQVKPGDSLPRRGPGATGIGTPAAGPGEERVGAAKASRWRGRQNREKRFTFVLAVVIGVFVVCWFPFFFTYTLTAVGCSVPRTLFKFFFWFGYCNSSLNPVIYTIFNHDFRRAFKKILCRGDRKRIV
Description: By establishing a cell line co-transfected with the target receptor and Ga16, the receptor can be activated to cause the activation of Gα16 protein, which in turn activates phospholipase C (PLC) to produce IP3 and DAG. IP3 can bind to the IP3 receptors on the endoplasmic reticulum and mitochondria in the cell, thereby causing the release of intracellular calcium. Therefore, measuring the changes in intracellular calcium can be used as a method to detect the activation state of the target receptor. Fluo-4/AM is a calcium fluorescent probe indicator used to measure calcium ions. As a non-polar lipid-soluble compound, after entering the cell, the AM group dissociates under the action of cell lipases and releases Fluo-4; since Fluo-4 is a polar molecule that is not easy to pass through the lipid bilayer membrane, it can keep in the cell for a long time. Finally, the level of Ga protein activation can be reflected by measuring the excited fluorescence intensity.
Before the test, the test compound was dissolved in DMSO to prepare a stock solution, which was diluted with culture medium to the required concentration when used.

[1] = Tissue distribution test in mice; format: in vivo; details: gavage 10 mg/kg
Protocol: Mice were fasted for more than 12 h and had free access to water. Table 3 Experimental Scheme for tissue distribution of Compound C27 in mice
Mice were fasted for more than 12 h and had free access to water.
• (1) Tissue distribution test in mice: The animals in each group were anesthetized and killed 2 h after administration. The brain, pancreas, heart, liver, and kidney tissues were collected by dissection, washed with physiological saline, and stored in a -20 °C refrigerator for testing. At the same time, 0.3 mL of whole blood was collected and placed in an EDTA-K2 anticoagulant tube. The blood was separated by centrifugation at 11,000 rpm for 5 min and stored in a -20 °C refrigerator for testing.
The concentration of unchanged drug in plasma and tissues was determined.
(2) Tissue distribution test of compound C27 in mice: At corresponding time points (0.25, 2 and 8 h) after gavage administration, mice were bled to death through the abdominal aorta. Brain, heart, liver, lung, pancreas and kidney tissues were immediately collected by dissection, and part of the plasma was collected. The operation was carried out in an ice water bath.
Centrifugation conditions: 11000 rpm for 5 min to separate plasma (about 200 µL).

[2] = relative ratio of tissue distribution concentration to blood concentration

`COCc1noc([C@@H]2[C@H]3C[C@H]4c5[nH]c6ccccc6c5CCN4C[C@@H]3CC[C@@H]2O)n1` [Compound C22] showed an IC50 (α2A-AR) of 0.1 to 0.3 µM.
For `COc1ccc(Cc2noc([C@@H]3[C@H]4C[C@H]5c6[nH]c7ccccc7c6CCN5C[C@@H]4CC[C@@H]3O)n2)cc1` [Compound C6], the IC50 (α2A-AR) was under 0.1 µM and the “brain tissue distribution compared with yohimbine” value [1, 2] was “lower brain tissue distribution than yohimbine”.
Work on `O[C@H]1CC[C@H]2CN3CCc4c([nH]c5ccccc45)[C@@H]3C[C@@H]2[C@H]1c1nc(Cc2nc3ccccc3o2)no1` [Compound C31] yielded an IC50 (α2A-AR) of 0.3 to 0.5 µM.
Compound `O[C@H]1CC[C@H]2CN3CCc4c([nH]c5ccccc45)[C@@H]3C[C@@H]2[C@H]1c1nc(Cc2cccc(OC(F)(F)F)c2)no1` [Compound C32] has an IC50 (α2A-AR) of under 0.1 µM.
`O[C@H]1CC[C@H]2CN3CCc4c([nH]c5ccccc45)[C@@H]3C[C@@H]2[C@H]1c1nc(Cc2cccc(F)c2)no1` [Compound C8] gave an IC50 (α2A-AR) of 0.3 to 0.5 µM.
`CC(c1ccccc1)c1noc([C@@H]2[C@H]3C[C@H]4c5[nH]c6ccccc6c5CCN4C[C@@H]3CC[C@@H]2O)n1` (some centres unmarked) [Compound C2] showed an IC50 (α2A-AR) of 0.3 to 0.5 µM.
For `COc1ccccc1Cc1noc([C@@H]2[C@H]3C[C@H]4c5[nH]c6ccccc6c5CCN4C[C@@H]3CC[C@@H]2O)n1` [Compound C4], the IC50 (α2A-AR) was 0.5 to 2 µM.
For `O[C@H]1CC[C@H]2CN3CCc4c([nH]c5ccccc45)[C@@H]3C[C@@H]2[C@H]1c1nc(Cc2ccc(Cl)c(Cl)c2)no1` [Compound C13], the IC50 (α2A-AR) was 0.5 to 2 µM and the “brain tissue distribution compared with yohimbine” value [1, 2] was “lower brain tissue distribution than yohimbine”.
For `O[C@H]1CC[C@H]2CN3CCc4c([nH]c5ccccc45)[C@@H]3C[C@@H]2[C@H]1c1nc(-c2ccccc2)no1` [Compound C23], the IC50 (α2A-AR) was 0.3 to 0.5 µM.
In the case of `O[C@H]1CC[C@H]2CN3CCc4c([nH]c5ccccc45)[C@@H]3C[C@@H]2[C@H]1c1nc(Cc2cccc(C(F)(F)F)c2)no1` [Compound C33], the IC50 (α2A-AR) is reported as 0.1 to 0.3 µM.
`O[C@H]1CC[C@H]2CN3CCc4c([nH]c5ccccc45)[C@@H]3C[C@@H]2[C@H]1c1nc(Cc2ccccc2Br)no1` [Compound C14] showed an IC50 (α2A-AR) of under 0.1 µM.
Work on `O=C(O)c1ccc(Cc2noc([C@@H]3[C@H]4C[C@H]5c6[nH]c7ccccc7c6CCN5C[C@@H]4CC[C@@H]3O)n2)cc1` [Compound C30] yielded an IC50 (α2A-AR) of 0.3 to 0.5 µM.
In the case of `O[C@H]1CC[C@H]2CN3CCc4c([nH]c5ccccc45)[C@@H]3C[C@@H]2[C@H]1c1nc(-c2ccncc2)no1` [Compound C24], the IC50 (α2A-AR) is reported as 0.5 to 2 µM.
Work on `COC(=O)c1ccc(Cc2noc([C@@H]3[C@H]4C[C@H]5c6[nH]c7ccccc7c6CCN5C[C@@H]4CC[C@@H]3O)n2)cc1` [Compound C29] yielded an IC50 (α2A-AR) of 0.1 to 0.3 µM.
With `O[C@H]1CC[C@H]2CN3CCc4c([nH]c5ccccc45)[C@@H]3C[C@@H]2[C@H]1c1nc(Cc2ccccc2Cl)no1` [Compound C10] the IC50 (α2A-AR) was 0.5 to 2 µM.
`O[C@H]1CC[C@H]2CN3CCc4c([nH]c5ccccc45)[C@@H]3C[C@@H]2[C@H]1c1nc(Cc2cccc(Br)c2)no1` [Compound C15] gave an IC50 (α2A-AR) of under 0.1 µM.
Compound `CN(C)S(=O)(=O)c1ccc(Cc2noc([C@@H]3[C@H]4C[C@H]5c6[nH]c7ccccc7c6CCN5C[C@@H]4CC[C@@H]3O)n2)cc1` [Compound C28] has an IC50 (α2A-AR) of under 0.1 µM.
For `O[C@H]1CC[C@H]2CN3CCc4c([nH]c5ccccc45)[C@@H]3C[C@@H]2[C@H]1c1nc(Cc2ccccc2)no1` [Compound C1], the IC50 (α2A-AR) was under 0.1 µM and the “brain tissue distribution compared with yohimbine” value [1, 2] was “lower brain tissue distribution than yohimbine”.
Work on `O[C@H]1CC[C@H]2CN3CCc4c([nH]c5ccccc45)[C@@H]3C[C@@H]2[C@H]1c1nc(Cc2ccc(Br)cc2)no1` [Compound C16] yielded an IC50 (α2A-AR) of 0.5 to 2 µM.
Compound `Cc1noc([C@@H]2[C@H]3C[C@H]4c5[nH]c6ccccc6c5CCN4C[C@@H]3CC[C@@H]2O)n1` [Compound C26] has an IC50 (α2A-AR) of 0.1 to 0.3 µM.
Work on `CN(C)c1cccc(Cc2noc([C@@H]3[C@H]4C[C@H]5c6[nH]c7ccccc7c6CCN5C[C@@H]4CC[C@@H]3O)n2)c1` [Compound C34] yielded an IC50 (α2A-AR) of 0.1 to 0.3 µM.
In the case of `CN(C)C(=O)c1ccc(Cc2noc([C@@H]3[C@H]4C[C@H]5c6[nH]c7ccccc7c6CCN5C[C@@H]4CC[C@@H]3O)n2)cc1` [Compound C35], the IC50 (α2A-AR) is reported as 0.1 to 0.3 µM.
Compound `O[C@H]1CC[C@H]2CN3CCc4c([nH]c5ccccc45)[C@@H]3C[C@@H]2[C@H]1c1nc(CN2CCOCC2)no1` [Compound C20] has an IC50 (α2A-AR) of 0.1 to 0.3 µM.
For `N#Cc1ccccc1Cc1noc([C@@H]2[C@H]3C[C@H]4c5[nH]c6ccccc6c5CCN4C[C@@H]3CC[C@@H]2O)n1` [Compound C17], the IC50 (α2A-AR) was 0.1 to 0.3 µM.
Work on `O[C@H]1CC[C@H]2CN3CCc4c([nH]c5ccccc45)[C@@H]3C[C@@H]2[C@H]1c1nc(Cc2cccc(Cl)c2)no1` [Compound C11] yielded an IC50 (α2A-AR) of 0.5 to 2 µM.
`O[C@H]1CC[C@H]2CN3CCc4c([nH]c5ccccc45)[C@@H]3C[C@@H]2[C@H]1c1nc(Cc2c(Cl)cccc2Cl)no1` [Compound C12] gave an IC50 (α2A-AR) of 0.1 to 0.3 µM.
With `O[C@H]1CC[C@H]2CN3CCc4c([nH]c5ccccc45)[C@@H]3C[C@@H]2[C@H]1c1nc(CCc2ccccc2)no1` [Compound C3] the IC50 (α2A-AR) was 0.1 to 0.3 µM.
`O[C@H]1CC[C@H]2CN3CCc4c([nH]c5ccccc45)[C@@H]3C[C@@H]2[C@H]1c1nc(Cc2ccccc2F)no1` [Compound C7] showed an IC50 (α2A-AR) of 0.5 to 2 µM.
`COc1cccc(Cc2noc([C@@H]3[C@H]4C[C@H]5c6[nH]c7ccccc7c6CCN5C[C@@H]4CC[C@@H]3O)n2)c1` [Compound C5] gave an IC50 (α2A-AR) of 0.1 to 0.3 µM.
`O[C@H]1CC[C@H]2CN3CCc4c([nH]c5ccccc45)[C@@H]3C[C@@H]2[C@H]1c1nc(CC2CC2)no1` [Compound C21] gave an IC50 (α2A-AR) of 0.5 to 2 µM.
With `NC(=O)c1ccc(Cc2noc([C@@H]3[C@H]4C[C@H]5c6[nH]c7ccccc7c6CCN5C[C@@H]4CC[C@@H]3O)n2)cc1` [Compound C27] the IC50 (α2A-AR) was under 0.1 µM, the pancreatic distribution [1] was “pancreatic distribution characteristics comparable to those of compound C19” and the plasma exposure ([1]; compared with yohimbine) was “equivalent to that of yohimbine”. The “brain tissue distribution compared with yohimbine” value [1, 2] was “lower brain tissue distribution than yohimbine” and the “brain tissue distribution, times lower than that of yohimbine” value [1, 2] was “about two hundred and seventy times lower”.
`O[C@H]1CC[C@H]2CN3CCc4c([nH]c5ccccc45)[C@@H]3C[C@@H]2[C@H]1c1nc(C2CCCCC2)no1` [Compound C25] gave an IC50 (α2A-AR) of 0.3 to 0.5 µM.
`N#Cc1cccc(Cc2noc([C@@H]3[C@H]4C[C@H]5c6[nH]c7ccccc7c6CCN5C[C@@H]4CC[C@@H]3O)n2)c1` [Compound C18] showed an IC50 (α2A-AR) of under 0.1 µM.
In the case of `O[C@H]1CC[C@H]2CN3CCc4c([nH]c5ccccc45)[C@@H]3C[C@@H]2[C@H]1c1nc(Cc2ccc(F)cc2)no1` [Compound C9], the IC50 (α2A-AR) is reported as 0.5 to 2 µM.
